Test results taken from ChEMBL document CHEMBL2413025, “Synthesis, biological activity and molecular modeling studies on 1H-benzimidazole derivatives as acetylcholinesterase inhibitors” (Bioorg Med Chem, 2013).

Legend:
Acetylcholinesterase [1] = target: Acetylcholinesterase (Electrophorus electricus, UniProt O42275)
Description: Inhibition of electric eel AChE using acetylthiocholine iodide as substrate preincubated for 5 mins before substrate addition by Ellman's method

Cholinesterase = Cholinesterase (Equus caballus, UniProt P81908)
Description: Inhibition of horse serum BChE using acetylthiocholine iodide as substrate preincubated for 5 mins before substrate addition by Ellman's method

Acetylcholinesterase [2] = target: Acetylcholinesterase (Homo sapiens, UniProt P22303); assay: Inhibition of recombinant human AChE using acetylthiocholine iodide as substrate preincubated for 5 mins before substrate addition by Ellman's method
[3] = Selectivity ratio of IC50 for horse serum BChE to IC50 for electric eel AChE

Chain of Acetylcholinesterase (Electrophorus electricus, UniProt O42275) (O42275 whole entry): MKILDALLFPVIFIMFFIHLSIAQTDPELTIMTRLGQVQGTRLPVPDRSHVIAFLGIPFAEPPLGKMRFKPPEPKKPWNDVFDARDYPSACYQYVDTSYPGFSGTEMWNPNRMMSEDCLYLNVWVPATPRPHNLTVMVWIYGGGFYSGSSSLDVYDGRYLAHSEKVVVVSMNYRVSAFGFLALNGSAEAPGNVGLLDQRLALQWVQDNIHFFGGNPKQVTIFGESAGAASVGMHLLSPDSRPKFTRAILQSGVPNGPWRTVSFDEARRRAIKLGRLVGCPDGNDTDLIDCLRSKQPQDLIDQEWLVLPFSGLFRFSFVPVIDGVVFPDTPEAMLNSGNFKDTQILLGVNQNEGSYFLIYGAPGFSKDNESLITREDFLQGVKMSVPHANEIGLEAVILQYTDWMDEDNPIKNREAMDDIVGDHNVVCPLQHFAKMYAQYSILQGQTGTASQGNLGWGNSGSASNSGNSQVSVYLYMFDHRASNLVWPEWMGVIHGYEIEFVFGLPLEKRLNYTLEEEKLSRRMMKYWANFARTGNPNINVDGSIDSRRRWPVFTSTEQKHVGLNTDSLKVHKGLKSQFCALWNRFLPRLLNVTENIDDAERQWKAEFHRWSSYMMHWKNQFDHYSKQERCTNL
Chain of Acetylcholinesterase (Homo sapiens, UniProt P22303) (P22303 whole entry): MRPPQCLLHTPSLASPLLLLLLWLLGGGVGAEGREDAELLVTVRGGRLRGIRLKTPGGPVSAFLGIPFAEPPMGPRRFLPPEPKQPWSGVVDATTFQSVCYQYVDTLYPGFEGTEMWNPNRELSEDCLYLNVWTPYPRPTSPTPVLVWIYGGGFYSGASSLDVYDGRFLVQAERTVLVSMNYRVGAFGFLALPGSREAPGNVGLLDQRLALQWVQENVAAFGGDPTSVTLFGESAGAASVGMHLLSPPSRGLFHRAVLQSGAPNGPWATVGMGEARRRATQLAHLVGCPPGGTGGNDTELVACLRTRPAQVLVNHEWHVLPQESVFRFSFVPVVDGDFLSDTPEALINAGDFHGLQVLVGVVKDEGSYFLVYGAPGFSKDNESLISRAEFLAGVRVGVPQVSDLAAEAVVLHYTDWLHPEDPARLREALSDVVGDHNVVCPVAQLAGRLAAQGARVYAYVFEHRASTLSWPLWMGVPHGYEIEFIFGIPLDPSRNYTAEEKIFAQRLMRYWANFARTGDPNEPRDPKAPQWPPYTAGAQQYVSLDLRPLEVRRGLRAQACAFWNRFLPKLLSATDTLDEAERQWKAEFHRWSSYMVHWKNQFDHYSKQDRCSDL
Chain of Cholinesterase (P81908 whole entry): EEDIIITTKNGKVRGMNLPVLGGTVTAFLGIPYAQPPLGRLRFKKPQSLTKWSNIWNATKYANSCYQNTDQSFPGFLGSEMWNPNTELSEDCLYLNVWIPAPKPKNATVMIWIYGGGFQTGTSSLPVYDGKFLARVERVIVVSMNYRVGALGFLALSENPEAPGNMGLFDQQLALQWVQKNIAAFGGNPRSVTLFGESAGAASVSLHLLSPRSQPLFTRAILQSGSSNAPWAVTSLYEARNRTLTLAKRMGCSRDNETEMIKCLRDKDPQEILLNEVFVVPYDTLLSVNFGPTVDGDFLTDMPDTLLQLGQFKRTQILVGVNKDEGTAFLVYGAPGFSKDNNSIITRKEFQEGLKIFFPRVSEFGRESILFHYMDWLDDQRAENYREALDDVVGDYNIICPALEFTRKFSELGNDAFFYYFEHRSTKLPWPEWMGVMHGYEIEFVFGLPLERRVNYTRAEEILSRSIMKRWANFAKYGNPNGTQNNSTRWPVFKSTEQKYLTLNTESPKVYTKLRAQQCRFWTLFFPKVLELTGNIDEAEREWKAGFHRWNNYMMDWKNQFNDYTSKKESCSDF

| SMILES | IC50 (Acetylcholinesterase [1]) | IC50 (Cholinesterase) | IC50 (Acetylcholinesterase [2]) | Ratio IC50 [3] |
| --- | --- | --- | --- | --- |
| Clc1ccc2[nH]c(-c3ccc(OCCN4CCOCC4)cc3)nc2c1 | 11.1 µM | > 100 µM | 9.73 µM |  |
| CC(C)N(CCOc1ccc(-c2nc3ccccc3[nH]2)cc1)C(C)C | 1.19 µM | 4.11 µM | 23.4 µM | 3.5 |
| Oc1ccc(-c2nc3cc(Cl)ccc3[nH]2)cc1 | 14.6 µM | 8.52 µM | > 100 µM | 0.6 |
| CN(C)CCOc1ccc(-c2nc3ccc(Cl)cc3[nH]2)cc1 | 2.68 µM | > 100 µM | 8.02 µM |  |
| Cc1ccc2[nH]c(-c3ccc(OCCN4CCCC4)cc3)nc2c1 | 1.34 µM | 3.24 µM | 0.4 µM | 2.4 |
| Cc1ccc2[nH]c(-c3ccc(OCCN(C)C)cc3)nc2c1 | 5.06 µM | > 100 µM | 12.3 µM |  |
| Cc1ccc2[nH]c(-c3ccc(O)cc3)nc2c1 | 15.9 µM | 4.67 µM | > 100 µM | 0.3 |
| CCN(CC)CCOc1ccc(-c2nc3cc(Cl)ccc3[nH]2)cc1 | 3.5 µM | > 100 µM | 8.75 µM |  |
| Clc1ccc2[nH]c(-c3ccc(OCCN4CCCC4)cc3)nc2c1 | 3.24 µM | 3.42 µM | 1.4 µM | 1.1 |
| CCN(CC)CCOc1ccc(-c2nc3ccc(C)cc3[nH]2)cc1 | 2.34 µM | 6.48 µM | 51 µM |  |
| c1ccc2[nH]c(-c3ccc(OCCN4CCOCC4)cc3)nc2c1 | 18.8 µM | > 100 µM | > 100 µM |  |
| CC(C)N(CCOc1ccc(-c2nc3ccc(Cl)cc3[nH]2)cc1)C(C)C | 0.58 µM | 7.44 µM | 3.68 µM |  |
| CN(C)CCOc1ccc(-c2nc3ccccc3[nH]2)cc1 | 13.1 µM | 5.87 µM | 10.7 µM | 0.4 |
| Cc1ccc2[nH]c(-c3ccc(OCCN4CCOCC4)cc3)nc2c1 | > 100 µM | > 100 µM | 12.9 µM |  |
| CCN(CC)CCOc1ccc(-c2nc3ccccc3[nH]2)cc1 | 15.6 µM | 5.06 µM | > 100 µM | 0.3 |
| c1ccc2[nH]c(-c3ccc(OCCN4CCCCC4)cc3)nc2c1 | 1.08 µM | 2.45 µM | 1.03 µM | 2.3 |
| Clc1ccc2nc(-c3ccc(OCCN4CCCCC4)cc3)[nH]c2c1 | 0.61 µM | > 100 µM | 0.13 µM |  |
| CC(C)N(CCOc1ccc(-c2nc3cc(Cl)ccc3[nH]2)cc1)C(C)C |  |  |  | 12.8 |
| Oc1ccc(-c2nc3ccccc3[nH]2)cc1 | 17.3 µM | 4.59 µM | > 100 µM | 0.3 |
| c1ccc2[nH]c(-c3ccc(OCCN4CCCC4)cc3)nc2c1 | 3.05 µM | 23 µM | 2.13 µM | 7.6 |
| Cc1ccc2[nH]c(-c3ccc(OCCN4CCCCC4)cc3)nc2c1 | 0.84 µM | 1.37 µM | 0.39 µM | 1.6 |
| CCN(CC)CCOc1ccc(-c2nc3cc(C)ccc3[nH]2)cc1 |  |  |  | 2.8 |
